Legend:
[1] = biological target: T1, T1R1/T1R3 (Homo sapiens (Human), UniProt Q7RTX0+Q7RTX1); test: Umami enhancement assay: MSG dose response with and without compound; type: cell-based; details: for Umami EC50 ratio: Table 5, compound concentration not given
Experimental: In enhancement assay experiments, a MSG dose response was run and a second MSG dose response was run with a certain amount of candidate compound at every MSG concentrations at the same time. Then, the EC50 ratio is calculated based on the following definitions: EC50 Ratio=EC50(MSG)/EC50(MSG+[Compound])
wherein “[compound]” refers to the concentration of compound used to elicit (or enhance or potentiate) the MSG dose response. Those concentrations can vary from a pM to an mM, more preferred, from a low nM to μM.
(§1) HEK-Gα15 cells were engineered to inducibly express T1R1/T1R3 using the GeneSwitch system (Invitrogen). pGene-derived zeocin-resistant expression vectors for human T1R1 and T1R3 (plasmid SXV603 for T1R1 and SXV611 for T1R3) and a puromycin-resistant pSwitch-derived vector that carries the GeneSwitch protein (plasmid SXV628) were linearized and cotransfected into the HEK-Gα15 cell line. Zeocin-resistant and puromycin-resistant colonies were selected, expanded, induced with variable amounts of mifepristone, and tested by calcium imaging for responses to umami taste stimuli. […] After replacement with 50 μl PBS, stimulation was performed at room temperature by the addition of 50 μl PBS supplemented with different stimuli. The maximal fluorescence from four independent determinations were averaged, corrected for background fluorescence measured prior to compound addition, and normalized to the response to 0.002 mM ionomycin (CALBIOCHEM).

[2] = biological target: T1, T1R1/T1R3; test: Umami FLIPR assay, HEK-Gα15 clone I-17 inducibly expressing T1R1/T1R3; type: cell-based; details: for EC50: Table 1 Umami Amides
Experimental: A dose-dependent response curve was determined for a compound, and the compound concentration corresponding to 50% of the maximal response was derived from the curve, in one example.
Regarding umami tastants and enhancers, scores of their activities can be given as percentage of the maximum MSG intensity (%). In compound dose response, an EC50 can be calculated to reflect the potency of the compound as umami agonist.
as §1

T1 sequence (Q7RTX1 21-841): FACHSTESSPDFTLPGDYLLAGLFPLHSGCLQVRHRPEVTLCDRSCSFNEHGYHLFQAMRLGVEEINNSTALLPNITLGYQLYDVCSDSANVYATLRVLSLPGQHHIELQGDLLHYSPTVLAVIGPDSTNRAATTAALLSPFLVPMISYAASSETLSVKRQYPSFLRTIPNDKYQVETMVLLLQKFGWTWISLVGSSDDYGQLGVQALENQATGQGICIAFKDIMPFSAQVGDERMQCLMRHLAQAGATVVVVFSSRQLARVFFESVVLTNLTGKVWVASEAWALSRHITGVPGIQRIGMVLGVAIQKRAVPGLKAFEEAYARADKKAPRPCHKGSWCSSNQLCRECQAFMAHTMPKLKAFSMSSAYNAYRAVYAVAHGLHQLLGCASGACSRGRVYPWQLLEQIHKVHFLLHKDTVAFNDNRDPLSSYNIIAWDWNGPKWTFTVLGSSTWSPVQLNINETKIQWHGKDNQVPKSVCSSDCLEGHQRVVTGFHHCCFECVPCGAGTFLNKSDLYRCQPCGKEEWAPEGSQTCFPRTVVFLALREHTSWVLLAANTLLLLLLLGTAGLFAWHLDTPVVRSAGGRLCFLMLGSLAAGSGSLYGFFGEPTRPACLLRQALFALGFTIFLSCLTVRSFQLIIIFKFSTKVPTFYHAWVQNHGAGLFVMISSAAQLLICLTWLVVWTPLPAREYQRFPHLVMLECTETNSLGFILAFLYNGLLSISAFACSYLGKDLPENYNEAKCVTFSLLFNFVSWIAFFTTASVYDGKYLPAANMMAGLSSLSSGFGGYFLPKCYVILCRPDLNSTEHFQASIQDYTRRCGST
T1 sequence (Q7RTX0 21-852 C757R): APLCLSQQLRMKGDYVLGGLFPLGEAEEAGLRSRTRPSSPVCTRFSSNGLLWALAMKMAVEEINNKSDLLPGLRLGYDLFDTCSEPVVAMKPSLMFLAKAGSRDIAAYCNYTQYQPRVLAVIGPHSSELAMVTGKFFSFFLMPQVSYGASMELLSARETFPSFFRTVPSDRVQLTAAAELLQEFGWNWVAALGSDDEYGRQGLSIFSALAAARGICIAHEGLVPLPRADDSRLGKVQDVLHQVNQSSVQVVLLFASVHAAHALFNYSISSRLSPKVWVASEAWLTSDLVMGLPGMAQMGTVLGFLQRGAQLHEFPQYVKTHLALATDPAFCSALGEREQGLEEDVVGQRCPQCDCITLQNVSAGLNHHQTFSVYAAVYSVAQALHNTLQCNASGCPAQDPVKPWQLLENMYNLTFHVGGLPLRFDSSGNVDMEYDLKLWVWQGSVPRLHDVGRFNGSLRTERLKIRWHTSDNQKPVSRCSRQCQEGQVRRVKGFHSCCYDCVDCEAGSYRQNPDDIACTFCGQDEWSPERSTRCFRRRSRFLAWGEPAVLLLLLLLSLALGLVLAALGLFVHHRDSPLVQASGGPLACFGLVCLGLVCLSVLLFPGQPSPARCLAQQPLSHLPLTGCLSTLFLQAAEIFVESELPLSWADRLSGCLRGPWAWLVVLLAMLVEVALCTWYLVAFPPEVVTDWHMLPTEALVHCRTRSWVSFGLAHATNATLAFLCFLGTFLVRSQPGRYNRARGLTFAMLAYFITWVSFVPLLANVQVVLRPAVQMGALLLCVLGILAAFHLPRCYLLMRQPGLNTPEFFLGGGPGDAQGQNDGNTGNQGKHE

CC(CCc1ccccc1)NC(=O)c1ccc2c(c1)OCO2 (centres unmarked) [Compound A48]
Ec50 ratio (vs. MSG) ([1]; Table 1, compound @ 1 uM): 9.27

CC(NC(=O)Nc1ccccc1Cl)C1CCCCC1 (centres unmarked) [Compound C5, 1-(2-chlorophenyl)-3-(1-cyclohexylethyl)urea]
Ec50 ratio (vs. MSG) ([1]; Table 3, Con. 1 uM): 9.08

COc1ccc(/C=C/C(=O)NC(C)CCc2ccccc2)cc1OC (centres unmarked) [Compound D16, (E)-3-(3,4-dimethoxyphenyl)-N-(4-phenylbutan-2-yl)acrylamide]
Ec50 ratio (vs. MSG) ([1]; Table 4, compound @ 1 uM): 3.13

CCCC(CCC)NC(=O)c1ccc(OCC)cc1 [Compound A68]
Ec50 ratio (vs. MSG) ([1]; Table 1, compound @ 0.3 uM): 2.62

COc1c(Cl)ccc(Cl)c1C(=O)Nc1ccccc1F [Compound E84, 3,6-dichloro-N-(2-fluorophenyl)-methoxybenzamide]
Umami EC50 ratio [1]: 16.51

CCCC(CCC)NC(=O)c1ccc(OC)cc1O [Compound A101]
Ec50 ratio (vs. MSG) ([1]; Table 1, compound @ 1 uM): 7.62

CCCC(CCC)NC(=O)/C=C/c1ccc(OC)cc1 [Compound D5, (E)-N-(heptan-4-yl)-3-(4-methoxyphenyl)acrylamide]
Ec50 ratio (vs. MSG) ([1]; Table 4, compound @ 0.3 uM): 3.48

CCC(NC(=O)Nc1ccc(Cl)cc1Cl)c1ccccc1 (centres unmarked) [Compound C2, 1-(2,4-dichlorophenyl)-3-(1-phenylpropyl)urea]
Ec50 ratio (vs. MSG) ([1]; Table 3, Con. 1 uM): 4.52

CCCC(NC(=O)c1ccc2c(c1)OCO2)C(=O)OC (centres unmarked) [Compound A49]
Ec50 ratio (vs. MSG) ([1]; Table 1, compound @ 1 uM): 9.53

O=C(Nc1ccccc1F)NC1CCCc2ccccc21 (centres unmarked) [Compound C11, 1-(2-fluorophenyl)-3-(1,2,3,4-tetrahydronaphthalen-1-yl)urea]
Ec50 ratio (vs. MSG) ([1]; Table 3, Con. 1 uM): 4.49

CCCC[C@@H](NC(=O)c1ccc2c(c1)OCO2)C(=O)OC [Compound A44]
EC50 [2]: 610 nM

CC[C@@H](C)[C@@](C)(NC(=O)c1ccc2c(c1)OCO2)C(=O)OC [Compound A42]
EC50 [2]: 350 nM

CCCC(CCC)NC(=O)c1cc(C)c(C)o1 [Compound A31]
Ec50 ratio (vs. MSG) ([1]; Table 1, compound @ 1 uM): 10.04

CC1CCCCC1NC(=O)c1cccc(C(F)(F)F)c1 (centres unmarked) [Compound E59, N-(2-methylcyclohexyl)-3-(trifluoromethyl)benzamide]
Umami EC50 ratio [1]: 2.07

CC1CCCCC1NC(=O)c1ccnc(Cl)c1 (centres unmarked) [Compound E56, 2-chloro-N-(2-methylcyclohexyl)isonicotinamide]
Umami EC50 ratio [1]: 2.08

COC(=O)c1ccc(NC(=O)c2c(Cl)ccc(Cl)c2OC)cc1 [Compound A2]
Ec50 ratio (vs. MSG) ([1]; Table 1, compound @ 0.01 uM): 6.98

CCC(COC)NC(=O)/C=C/c1ccc(OC)cc1 (centres unmarked) [Compound D14, (E)-N-(1-methoxybutan-2-yl)-3-(4-methoxyphenyl)acrylamide]
Ec50 ratio (vs. MSG) ([1]; Table 4, compound @ 1 uM): 8.48

CCCC(CCC)NC(=O)c1ccc2cc[nH]c2c1 [Compound A35]
Ec50 ratio (vs. MSG) ([1]; Table 1, compound @ 1 uM): 8.81

CCOc1ccc(NC(=O)c2cc(Cl)ccc2Cl)cc1 [Compound A3]
Ec50 ratio (vs. MSG) ([1]; Table 1, compound @ 0.03 uM): 6.14

COc1ccc(C(=O)NC2CCc3ccccc32)cc1Cl (centres unmarked) [Compound A106]
Ec50 ratio (vs. MSG) ([1]; Table 1, compound @ 0.3 uM): 4.01

CCCC(CCC)NC(=O)Nc1ccccc1F [Compound C4, 1-(2-fluorophenyl)-3-(heptan-4-yl)urea]
Ec50 ratio (vs. MSG) ([1]; Table 3, Con. 3 uM): 12.15

O=C(Nc1ccccc1Cl)NC1CCCc2ccccc21 (centres unmarked) [Compound C7, 1-(2-chlorophenyl)-3-(1,2,3,4-tetrahydronaphthalen-1-yl)urea]
Ec50 ratio (vs. MSG) ([1]; Table 3, Con. 1 uM): 3.68

CCCCC(CCCC)NC(=O)c1ccc2c(c1)OCO2 [Compound A41]
Ec50 ratio (vs. MSG) ([1]; Table 1, compound @ 3 uM): 2.14

COC(=O)[C@H]1CCCC[C@H]1NC(=O)c1ccc(OC)c(Cl)c1 [Compound A103]
EC50 [2]: 1360 nM

CCCC(CCC)NC(=O)/C=C/c1ccsc1 [Compound D15, (E)-N-(heptan-4-yl)-3-(thiophen-3-yl)acrylamide]
Ec50 ratio (vs. MSG) ([1]; Table 4, compound @ 0.3 uM): 2.22

CCCC(CCC)NC(=O)c1ccc(C)s1 [Compound A38]
Ec50 ratio (vs. MSG) ([1]; Table 1, compound @ 1 uM): 6.54

COC(=O)[C@@H](CC(C)C)NC(=O)c1ccc2c(c1)OCO2 [Compound A45]
EC50 [2]: 880 nM

CCCC(CCC)NC(=O)/C=C/c1cccs1 [Compound D6, N-(1-Propyl-butyl)-3-thiophen-2-yl-acrylamide]
Ec50 ratio (vs. MSG) ([1]; Table 4, compound @ 1 uM): 6.3

CCCC(CCC)NC(=O)c1cccc(C(C)(F)F)c1 [Compound A70]
EC50 [2]: 330 nM

Cc1cc(C(=O)NC2CCCc3ccccc32)ccc1O (centres unmarked) [Compound A102]
Ec50 ratio (vs. MSG) ([1]; Table 1, compound @ 1 uM): 9.49

Cc1ccc(C(=O)NC2CCCc3ccccc32)s1 (centres unmarked) [Compound A39]
Ec50 ratio (vs. MSG) ([1]; Table 1, compound @ 1 uM): 2.3

N[C@@H](CC(=O)O)C(=O)O [L-aspartate, reference compound]
activation of T1R1/T1R3 receptor by L-amino acids ([2]; clone I-17, with and without IMP): significantly activated

Source: US9459250B2, “Use of T1R3 venus flytrap region polypeptide to screen for taste modulators” (SENOMYX, INC., priority 2003, dated 2016)
